Reference: US11377442B2, “Small molecule agonists and antagonists of NR2F6 activity” (ZANDER THERAPEUTICS, INC., priority 2016, dated 2022)
Entries after “also recorded” stand apart in the source; their conditions may differ. Like-named read-outs stand apart in the source and are kept apart here.

Experiments:
Assay type in all cases: cell-based
Renilla_ERa = experiment: Renilla signal in ERα counterscreen (Renilla_ERa)
Renilla = Renilla signal in NR2F6 agonist screening, cmpd/DMSO; settings: Renilla
NR2F6 = molecular target: T1, NR2F6 (Homo sapiens, UniProt P10588); experiment: NR2F6 agonist screening, Firefly signal cmpd/DMSO; settings: for activity (in words): screening result
T1 construct: expressed in transfected cells; also transient transfection
T1 sequence (P10588 1-404): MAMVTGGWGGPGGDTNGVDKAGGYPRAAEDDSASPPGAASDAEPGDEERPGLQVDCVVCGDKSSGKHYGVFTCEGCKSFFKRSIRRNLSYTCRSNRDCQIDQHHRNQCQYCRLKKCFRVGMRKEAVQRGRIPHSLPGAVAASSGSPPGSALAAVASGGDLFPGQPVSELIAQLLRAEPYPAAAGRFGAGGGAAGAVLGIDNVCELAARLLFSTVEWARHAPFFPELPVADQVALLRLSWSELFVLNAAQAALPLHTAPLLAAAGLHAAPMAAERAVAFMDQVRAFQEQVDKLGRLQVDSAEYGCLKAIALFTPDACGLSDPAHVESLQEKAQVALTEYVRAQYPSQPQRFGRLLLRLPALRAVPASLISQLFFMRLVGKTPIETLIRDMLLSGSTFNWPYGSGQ

ERα [1] = molecular target: T2, ERα (Homo sapiens, UniProt P03372); experiment: Counterscreening, Firefly signal with ERα transient transfection (Firefly_ERa); settings: for Firefly_ERa, cmpd/DMSO repeat 1 / Firefly_ERa, cmpd/DMSO repeat 2: ERα transient transfection, 10 μM; for Firefly ERalpha transient, cmpd/DMSO (mean): Table 15, 10 uM
T2 construct: expressed in transfected cells
T2 sequence (P03372 1-595): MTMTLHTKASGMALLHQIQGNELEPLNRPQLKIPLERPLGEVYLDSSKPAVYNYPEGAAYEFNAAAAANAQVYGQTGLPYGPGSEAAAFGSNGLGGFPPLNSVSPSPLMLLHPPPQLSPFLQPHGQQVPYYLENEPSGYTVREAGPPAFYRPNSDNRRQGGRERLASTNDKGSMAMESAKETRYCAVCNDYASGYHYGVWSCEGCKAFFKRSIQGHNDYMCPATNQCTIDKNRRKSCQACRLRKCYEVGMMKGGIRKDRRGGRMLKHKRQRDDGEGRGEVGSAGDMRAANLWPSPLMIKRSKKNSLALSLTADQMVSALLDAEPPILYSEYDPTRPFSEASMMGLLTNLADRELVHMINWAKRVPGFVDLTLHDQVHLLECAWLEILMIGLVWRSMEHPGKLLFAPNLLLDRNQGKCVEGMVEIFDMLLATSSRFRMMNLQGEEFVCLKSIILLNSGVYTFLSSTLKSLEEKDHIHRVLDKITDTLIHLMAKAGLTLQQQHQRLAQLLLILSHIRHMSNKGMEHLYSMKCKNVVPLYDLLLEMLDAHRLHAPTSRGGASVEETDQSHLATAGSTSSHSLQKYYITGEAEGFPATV
Description: The methodology for screening candidate compounds as NR2F6 agonists was as follows: For primary screening, hit criteria was ACT %>DMSO control+5*SD (DSO control) at 10 μM, or any compound with S/B>2. For rescreening, hit criteria was ACT %>DMSO control+3*SD (DSO control) in each replicate at 10 μM. For counterscreening, hit criteria was mean ACT<DMSO control+3*SD (DMSO control) with ERα transient transfection in duplicate at 10 μM.

HEK293 pGL4 = experiment: Firefly_pGL signal, cmpd/DMSO (pGL4 control cells); settings: Homo sapiens, HEK293, Table 14, read-out: Firefly pGL4, cmpd/DMSO (mean)
ERα [2] = molecular target: T2, ERα; experiment: Counterscreening, Firefly signal with ERα transient transfection (Firefly_ERa); settings: Table 15
[3] = ERα transient transfection, 10 μM, repeat 1, read-out: Renilla_ERa, cmpd/DMSO repeat 1
[4] = ERα transient transfection, 10 μM, repeat 2, read-out: Renilla_ERa, cmpd/DMSO repeat 2
[5] = Table 14, read-out: Renilla F4, cmpd/DMSO (mean)
[6] = Table 14, 10 uM, read-out: Renilla F4, cmpd/DMSO (mean)
[7] = first set screening, 10 μM, repeat 1, read-out: Renilla, cmpd/DMSO repeat 1
[8] = first set screening, 10 μM, repeat 2, read-out: Renilla, cmpd/DMSO repeat 2
[9] = C11 analogs follow set (Tables 2-10)

SMILES | fold induction at 10 µM (Renilla_ERa; [3]) | fold induction at 10 µM (Renilla_ERa; [4]) | fold induction at 2 µM (Renilla; [5]) | fold induction at 10 µM (Renilla; [6]) | fold induction at 40 µM (Renilla; [5]) | fold induction at 10 µM (Renilla; [7]) | fold induction at 10 µM (Renilla; [8]) | Firefly F4, cmpd/DMSO (mean) (NR2F6; Table 14, 2 uM) | Firefly F4, cmpd/DMSO (mean) (NR2F6; Table 14, 10 uM) | Firefly F4, cmpd/DMSO (mean) (NR2F6; Table 14, 40 uM) | Firefly, cmpd/DMSO repeat 1 (NR2F6; first set screening, 10 μM) | Firefly, cmpd/DMSO repeat 2 (NR2F6; first set screening, 10 μM) | Firefly_ERa, cmpd/DMSO repeat 1 (ERα [1]) | Firefly_ERa, cmpd/DMSO repeat 2 (ERα [1]) | Firefly ERalpha transient, cmpd/DMSO (mean) (ERα [2]; 2 uM) | Firefly ERalpha transient, cmpd/DMSO (mean) (ERα [2]; 40 uM) | Firefly F4, cmpd/DMSO (mean) (NR2F6; Table 15, 2 uM) | Firefly F4, cmpd/DMSO (mean) (NR2F6; Table 15, 10 uM) | Firefly F4, cmpd/DMSO (mean) (NR2F6; Table 15, 40 uM) | Firefly ERalpha transient, cmpd/DMSO (mean) (ERα [1]) | further results
Cc1ccc(-c2nc3ccccc3c(=O)[nH]2)cc1 [Compound C3] | 1.1 | 1.2 | 1 | 0.9 | 0.9 | 1.6 | 1.2 | 1.5 | 1.1 | 0.9 | 2.0 | 2.0 | 1.8 | 1.9 | – | – | – | – | – | – | fold induction at 2 µM (HEK293 pGL4): 1.1; fold induction at 10 µM (HEK293 pGL4): 1.3; fold induction at 40 µM (HEK293 pGL4): 1
CCOC(=O)c1cnn2c(-c3ccc(Cl)cc3)ccnc12 [Compound C4] | 1.1 | 1.2 | 0.6 | 0.5 | 0.5 | 1.6 | 1.5 | 1.1 | 0.8 | 0.7 | 2.5 | 2.5 | 1.6 | 1.7 | – | – | – | – | – | – | fold induction at 2 µM (HEK293 pGL4): 1; fold induction at 10 µM (HEK293 pGL4): 0.9; fold induction at 40 µM (HEK293 pGL4): 1.3
O=C(Nc1cccc(O)c1)c1cc(-c2ccc(Cl)c(Cl)c2)on1 [Compound C5] | 1.2 | 1 | 0.7 | 0.5 | 1.1 | 1.3 | 1.4 | 0.9 | 0.8 | 0.8 | 2.2 | 1.7 | 1.6 | 2.0 | – | – | – | – | – | – | fold induction at 2 µM (HEK293 pGL4): 1.3; fold induction at 10 µM (HEK293 pGL4): 1.2; fold induction at 40 µM (HEK293 pGL4): 1
CCc1cc(C(=O)Nc2ccn(Cc3ccc(C)cc3)n2)no1 [Compound C6] | 1 | 1 | 0.7 | 0.6 | 0.5 | 1.2 | 0.9 | 1.4 | 0.6 | 0.4 | 2.6 | 1.9 | 2.2 | 1.4 | – | – | – | – | – | – | fold induction at 2 µM (HEK293 pGL4): 1.3; fold induction at 10 µM (HEK293 pGL4): 1.3; fold induction at 40 µM (HEK293 pGL4): 1
CCc1cccc(Nc2cnn(-c3nc4ccccc4s3)c(=O)c2Cl)c1 [Compound C7] | 0.8 | 0.8 | 1 | 0.3 | 0.4 | 1.1 | 1.4 | 0.6 | 0.5 | 0.4 | 2.1 | 2.1 | 0.8 | 0.5 | – | – | – | – | – | – | activity (in words) (NR2F6): particularly good activity; fold induction at 2 µM (HEK293 pGL4): 0.9; fold induction at 10 µM (HEK293 pGL4): 0.8; fold induction at 40 µM (HEK293 pGL4): 0.8
COC(=O)c1ccc2oc(=O)c(S(=O)(=O)c3ccccc3)cc2c1 [Compound C11] | 1.3 | 1.2 | 1.1 | 1.2 | 0.2 | 3.8 | 3.3 | 1.7 | 1.6 | 0.4 | 13.5 | 12.6 | 1.7 | 1.7 | – | – | – | – | – | – | Firefly, cmpd/DMSO repeat 1 (NR2F6; [9]): 24.6; Firefly, cmpd/DMSO repeat 2 (NR2F6; [9]): 21.3; Firefly/Renilla (NR2F6 stable, clone F4) (NR2F6; Table 12, ratio Firefly/Renilla, NR2F6 stable clone F4): 1.8; Firefly, NR2F6 stable (clone F4)/pGL4 (NR2F6; Table 12, ratio of Firefly in NR2F6 stable clone F4 to pGL4): 7.0; Firefly, cmpd/DMSO repeat 1 (NR2F6; Table 12): 24.6; Firefly, cmpd/DMSO repeat 2 (NR2F6; Table 12): 21.3; activity (in words) (NR2F6): particularly good activity; also recorded: particularly promising; fold induction at 2 µM (HEK293 pGL4): 1.1; fold induction at 10 µM (HEK293 pGL4): 1.7; fold induction at 40 µM (HEK293 pGL4): 0.8
CCOC(=O)c1cnc2c(C)cc(C)cc2c1NCCCN1CCCCC1 [Compound Z8] | – | – | – | – | – | – | – | – | – | – | – | – | – | – | 2.2 | 0.4 | 2.6 | 4.0 | 0.7 | 2.4 | fold induction at 2 µM (Renilla_ERa; Table 15, 2 uM, read-out: Renilla ERalpha transient, cmpd/DMSO (mean)): 1.4; fold induction at 10 µM (Renilla_ERa; Table 15, 10 uM, read-out: Renilla ERalpha transient, cmpd/DMSO (mean)): 1.4
CCOC(=O)c1cnc2c(C)cc(C)cc2c1NCCCN1CCCCC1 [Compound Z9] | – | – | – | – | – | – | – | – | – | – | – | – | – | – | 2.2 | 0.5 | 2.5 | 6.7 | 1.2 | 2.7 | –
CCOC(=O)c1cnc2c(C)cc(C)cc2c1NCCCN1CCCCC1 [Compound Z10] | – | – | – | – | – | – | – | – | – | – | – | – | – | – | 4.2 | 0.5 | 5.8 | 1.6 | 0.7 | 1.5 | –
CCOC(=O)c1cnc2c(C)cc(C)cc2c1NCCCN1CCCCC1 [Compound Z11] | – | – | – | – | – | – | – | – | – | – | – | – | – | – | 2.1 | 0.6 | 3.5 | 1.2 | 0.5 | 1.6 | –
CCOC(=O)c1cnc2c(C)cc(C)cc2c1NCCCN1CCCCC1 [Compound Z12] | – | – | – | – | – | – | – | – | – | – | – | – | – | – | 2.4 | 0.4 | 3.9 | 1.8 | 0.4 | 1.3 | –
CCOC(=O)c1cnc2c(C)cc(C)cc2c1NCCCN1CCCCC1 [Compound Z17] | – | – | – | – | – | – | – | – | – | – | – | – | – | – | 1.7 | 2.9 | 1.5 | 6.5 | 0.6 | 9.5 | –
CCOC(=O)c1cnc2c(C)cc(C)cc2c1NCCCN1CCCCC1 [Compound Z19] | – | – | – | – | – | – | – | – | – | – | – | – | – | – | 1.9 | 0.7 | 1.3 | 6.3 | 0.7 | 12.7 | –
